Where only a bound is given, the exact number is not on record here.

In the case of `CS(=O)(=O)Nc1cc(-c2ncc(C(F)(F)F)cc2Cl)ccc1Cl`, the melting point (in general, the temperature of the solid-liquid transition) was in the range of 133 to 134 °C. On to `COC(=O)c1cc(N(C)C(C)=O)cc(N(C)C(C)=O)c1`, for which the melting point came out at 106 °C. The compound `CCCCNC(=O)c1ccc(N2CCN(c3ccncc3)CC2)cc1` showed a melting point of 172 to 174 °C. As for `CCOCOc1cc(C)ccc1-c1cc(-c2cccc([N+](=O)[O-])c2)c(C#N)c(NC(=O)c2cccs2)n1`, the melting point was in the range of 121 to 123 °C. The compound `CN1CCC23CC(=O)CCC2(O)C1Cc1cccc(O)c13` (configuration not stated) showed a melting point of 233 to 236 °C. In turn, `CCCc1c(-c2ccc(Cl)cc2)n[nH]c1-c1cccs1` returned a melting point of 129 to 132 °C. In the case of `CC(=O)Oc1ccc(-c2cnc(N(S(=O)(=O)Cc3ccccc3)S(=O)(=O)Cc3ccccc3)c(Cc3ccccc3)n2)cc1`, the melting point lay in the range of 84 to 86.5 °C.

`CCOC(=O)c1ccc(C)nc1` yielded a melting point of 57 to 58 °C. In turn, `OCc1cn(-c2ccc(Cl)c(C(F)(F)F)c2)cn1` showed a melting point of 148 to 153 °C. `Cc1c(NC(=O)c2ccc(-c3ccc(C(F)(F)F)cc3)cc2)ccc2cc(CN3CCCC3)cnc12`: the melting point was 220 to 222 °C.

Take `O=S(=O)(NCCCCOc1ccc(-n2ccnc2)cc1)c1ccc2ccccc2c1`: the melting point lay in the range of 157 to 158 °C. With `O=Cc1cccn1C(=O)c1ccccc1[N+](=O)[O-]`, the melting point was in the range of 95 to 99 °C. Compound `C=CCOc1ccc(C(=O)CC(C#N)(CCC)c2ccc(OC)cc2OC)cc1` (configuration not stated) displayed a melting point of 86.1 to 87.1 °C. Compound `CN(CC(O)C(Cc1ccccc1)NC(=O)OC(C)(C)C)CC(O)C(Cc1ccccc1)NC(=O)OC(C)(C)C` (configuration not stated) returned a melting point of 62 to 70 °C. `NC(=O)CNC(=O)c1cccc(-c2ncnc3cc(Cc4cccc(C(F)(F)F)c4)sc23)c1` had a melting point of 205 to 206 °C. `CNC(=O)c1cccc(NC(=O)Cc2cccc(C)c2)c1` showed a melting point of 131 °C.

`CCN1C(=O)C(=CC=C2C=C(c3ccccc3)C=C3N2c2ccccc2C3(C)C)C(=O)N(CC)C1=S`: the melting point is > 310 °C. `O=Cc1cc2c(ccc3ccoc32)c2ccccc12` gave a melting point of 164 to 166 °C. As to `O=C1N=NC(=O)c2c1[nH]c1c(Cl)cccc21`, the melting point is > 250 °C. The same measure for `COc1cccc(-c2ccnc(Nc3cccc(OC(F)(F)C(F)F)c3)n2)c1`: 103 to 104 °C; for `O=C(OC1CCCCC1)c1cncn1C(c1ccccc1)c1ccccn1` (configuration not stated): 161 °C. The compound `CC(=CC=Cc1ccccc1)C(=O)C1OCC(C)(C)CO1` showed a melting point of 122 to 125 °C.

Regarding `COc1ccc(CN2C=CC=C3C2=Nc2cc(OC)ccc2S(=O)(=O)N3C)cc1`, the melting point lay in the range of 179 to 180 °C. In turn, `O=C(NCC1(c2ccccc2)CCCCC1)Nc1ccccc1` returned a melting point of 162 to 164 °C.

The compound `CCOC(=O)c1ccc(C(=O)O)c2c([N+](=O)[O-])cccc12` showed a melting point of 178 to 180 °C.

`COc1cccc(Cl)c1C1SC(=O)NC1=O` (configuration not stated) showed a melting point of 195 to 197 °C. `COc1cc(C(C)=O)c(O)cc1N1CCN(Cc2ccccc2)CC1` displayed a melting point of 90 to 92 °C. For `CCOC(=O)C1CN(CC)c2nc3cc(F)c(F)cc3cc2C1=O` (configuration not stated), the melting point is 152 °C. The figure for `C#CCOc1cc(-c2ccc(S(C)(=O)=O)cc2)c(-c2ccc(F)cc2)c(C(F)(F)F)n1` is 138 to 139 °C; for `CCOc1ccc(C)c(N(Cc2ccccc2)C(=O)C(C)(C)Br)c1` it is 87 to 88 °C. Regarding `CC(C#N)(CCc1ccccc1C(F)(F)F)NC(=O)c1ccc(OC(F)(F)F)cc1` (configuration not stated), the melting point was 87 to 89 °C. For the compound `O=C(NNS(=O)(=O)c1ccccc1)c1ccc2[nH]ccc2c1`, the melting point lay in the range of 209 to 211 °C. As for `CCN1c2ncc(CC(OC(C)=O)c3ccncc3)cc2C(=O)N(C)c2ccc(Cl)nc21` (configuration not stated), the melting point was in the range of 157 to 158 °C. The same measure for `C=CCOc1ccc2c(C)c(C(=O)C=Cc3cc(OC)c(OC)c(OC)c3)c(=O)oc2c1`: 138 to 140 °C; for `O=C(O)Cc1ccc(-c2ccc(-c3ccccc3)cc2)o1`: 196 to 210 °C. As for `CCOc1cccc(C(c2ccccc2Cl)n2nc(C(=O)O)c3c2-c2ccc(OCc4cncnc4)cc2CC3)c1` (configuration not stated), the melting point lay in the range of 234 to 235 °C. `O=c1oc(-c2cccc(C(F)(F)F)c2)nc2ccc(F)cc12` came in with a melting point of 118 to 119 °C.

On to `O=C(O)/C=C/c1ccc(-c2nc3c(=O)n(CC4CCCCC4)c(=S)n(CC4CCCCC4)c3[nH]2)cc1`, for which the melting point was > 300 °C. As for `CCCC(=O)c1cnc2c(C(=O)OC)cccc2c1Nc1ccccc1C`, the melting point lay in the range of 113 to 115 °C.

Turning to `ClCc1coc(-c2ccsc2)n1`, the melting point fell in the range of 91 to 92 °C. The figure for `COC(=O)c1ccc(C#N)s1` is 76 to 78 °C; for `NC(=O)Cc1cccc(OCCN2CCC(Cc3ccccc3)CC2)c1` it is 100 to 101 °C; for `CC(=O)N1CCN(C(=O)Cc2ccc(Cl)c(Cl)c2)C(CN2CCC(O)C2)C1` (configuration not stated) it is 133 °C.

`CCC(=O)OCC(OC(=O)CC)C1OC(OC(=O)CC)C(OC(=O)CC)C1OC(=O)CC` (configuration not stated) registered a melting point of 74.5 to 75.5 °C. As to `Cc1c(C(=O)NCc2ccc3c(Br)c(OC(Cc4ccccc4)C(=O)O)ccc3c2)oc2ccccc12` (configuration not stated), the melting point lay in the range of 110 to 113 °C. The figure for `CCOC(=O)C1CCc2c(n(C)c3ccc(Cl)cc23)C1` (configuration not stated) is 126 to 127 °C; for `CCNC1(c2ccccc2Cl)C(=O)N(Cc2ccc(C(=O)NC(C)(CO)CO)cc2)c2ccc(Cl)cc21` (configuration not stated) it is 138 to 141 °C. The same measure for `COC(=O)/C(O)=C1/C(=O)c2ccc(OC)cc2CC1C` (configuration not stated): 89 to 89.6 °C; for `CS(=O)(=O)N=C(NCCSCc1ccco1)Oc1ccccc1O`: 110 to 112 °C; for `CCCCCCCNC(=O)Nc1ccc(N)cc1C(=O)NC1CCN(C(c2ccccc2)c2ccccc2)CC1`: 190 to 192 °C.

Turning to `CCCc1c(CC)sc2[nH]c(=O)c(=O)[nH]c12`, the melting point lay within 295 to 298 °C. As to `O=c1c2cc(Cl)ccc2ncn1CCCN1CCC(c2c[nH]c3ccccc23)CC1`, the melting point was determined as 138 °C. With `COC(=O)CC(CC(=O)OC)Sc1cc(OC)ccc1[N+](=O)[O-]`, the melting point was found to be 91 °C.

`COc1cc(-c2cccc(Cl)c2)c2cc(C(O)(c3ccc(Cl)cc3)c3cncn3C)cc(NC(C)=O)c2n1` (configuration not stated) had a melting point of 143 °C. The compound `CCC(=C(c1ccccc1)c1ccc(C2CC2C(=O)N(CC)CC)cc1)c1ccccc1` (configuration not stated) gave a melting point of 42 to 44 °C.

The compound `COc1ccc(CCNCCCOc2ccccc2NC(=O)c2cccc3[nH]ccc23)cc1OC` displayed a melting point of 182 °C. As for `COc1ccc2ccc(C(N)=O)c(OC(C)C)c2c1`, the melting point was in the range of 172 to 174 °C. Compound `CCN(CC)c1ccc(C2OC(C)(C)N=C2c2ccccc2)cc1` (configuration not stated) returned a melting point of 104 to 105 °C.

The compound `CC(C)(C)C(=O)NNc1ccc([N+](=O)[O-])cc1Br` came in with a melting point of 145 °C.

Compound `COc1cc(C(F)(F)F)ccc1C#N` yielded a melting point of 59 to 61 °C. The compound `Fc1ccc2c(c1F)OCc1csc(=S)n1-2` came in with a melting point of 163 to 167 °C.

The compound `Cc1cccc2c(=O)[nH]c(N3CCN(C)C(CO)C3)cc12` (configuration not stated) gave a melting point of 184 to 186 °C. In turn, `Cc1cc(N)cc(C)c1Oc1ccc(O)c(Cc2ccc(F)cc2)c1` showed a melting point of 179 to 182 °C. Compound `Cc1cc(O)c(C)c(C)c1N` registered a melting point of 153 to 154 °C. The figure for `CN(C)c1ccc(NC(=O)N(C)c2cccc(-c3ccc(CC(Nc4ccccc4C(=O)c4ccccc4)C(=O)O)cc3)c2)cc1` (configuration not stated) is 130 °C; for `CN(C)C(=O)C1CC(c2ccc(-c3ccc(N4C[C@H](Cn5ccnn5)OC4=O)cc3F)cn2)=NO1` (some centres not stated) it is 180 to 190 °C. The same measure for `CN1C(=O)C(NC(=O)CC2CCCCC2)N=C(N2CCCCCC2)c2ccccc21` (configuration not stated): 205 to 207 °C. The figure for `CC(C#N)c1ccc(O)cc1` (configuration not stated) is 41 to 46 °C; for `O=C(NC(=O)c1c(Cl)cccc1Cl)Nc1noc(-c2ccc(C(F)(F)F)cc2)c1Cl` it is 237 to 238 °C; for `COc1cccc(-c2nc(N)ncc2-c2ccc(=O)[nH]n2)c1` it is 134 °C. With `O=C(O)COn1cccn1`, the melting point worked out at 99 °C.

`CC(CCC(=O)O)C1CCC2C3C(O)CC4CC(NC(=O)CNC(=O)OC(C)(C)C)CCC4(C)C3CC(O)C12C` (configuration not stated) returned a melting point of 150 to 155 °C. With `Cc1ccc(C(=O)NN2CCOCC2)c(Nc2ccc3[nH]ncc3c2)n1`, the melting point was 257 to 260 °C.

For the compound `CC(=O)Nc1ncc2ncn([C@@H]3C[C@H](OC(C)=O)[C@@H](O)[C@H]3O)c2n1` (racemic), the melting point is 222 to 223 °C. `CC(C)(C)C(O)C(Cn1ccnc1)Oc1ccc(Cl)cc1` (configuration not stated) showed a melting point of 163 to 170 °C.

`CCCCS(=O)Cc1ccc(CS(=O)CCCC)cc1` (configuration not stated) registered a melting point of 187 to 188 °C. For `COc1ccc(N2C(=O)Cc3ccccc32)cc1Cl`, the melting point fell in the range of 165 to 167 °C. For `O=[N+]([O-])C(=Cc1ccc(F)cc1)c1ccc(F)cc1`, the melting point fell in the range of 107 to 109 °C. The figure for `O=C1N(Cc2ccc3nsnc3c2)c2ccccc2C12COc1cc3c(cc12)CCO3` (configuration not stated) is 162 to 164 °C. The compound `O=C(O)Cc1c(C(=O)c2ccc(Cl)cc2)[nH]c2ccc(OC(F)(F)F)cc12` returned a melting point of 195 °C.

On to `Cc1cc2c(s1)Nc1ccccc1N=C2N1CCN(C)[C@@H](COCc2ccccc2)C1`, for which the melting point was in the range of 55 to 65 °C. Consider `O=C(Nc1ccc(C(=O)N2Cc3cccn3Cc3ccccc32)cc1)c1ccccc1C(F)(F)F`, for which the melting point lay within 226 to 228 °C.

For `CC(C)c1cccc(C(C)C)c1N=c1cccc(-c2ccccc2)[nH]1`, the melting point lay within 142 to 144 °C. The same measure for `C=C1N(CCC)C(=O)OC12CCNCC2`: 106 to 108 °C. `CCOCc1nnc2c(C)c(Cl)ccn12` showed a melting point of 92.9 °C. In the case of `CC1(C)CCC(C)(C)c2cc(C(Br)C(Br)c3ccc(C#N)cc3)ccc21` (configuration not stated), the melting point fell in the range of 174 to 175 °C. As for `CC(C)(C)c1cc(N=Nc2ccc(Cl)cc2Cl)c(O)c(C(C)(C)C)c1`, the melting point is 164 to 168 °C.

The values are drawn from a melting point compilation (Tetko et al.; mined from patent text by program, amines drawn as free bases though some values may be those of a salt).
